{"source": "paper PMC5082894", "about": "(PLoS ONE, 2016)", "key": {"[1]": {"test_system": "HIV-1 NL4-3", "test": "MAGI assay, HIV-1 NL4-3", "format": "cell-based", "settings": "Human immunodeficiency virus 1, NL43, MAGI cells", "protocol": "Briefly, target cells (HeLa CD4/CCR5-LTR/β-gal; 10^4/well) were plated in 96-well flat microtiter culture plates. […] The test drugs were added initially and viruses were immediately inoculated onto the cells. Forty-eight hours after viral exposure, all blue cells in each well were counted. The cytotoxicity of the compound was determined by the MTT method as previously described. All experiments were performed in triplicate and AZT was used as reference anti-HIV-1 molecule."}, "[2]": {"molecular_target": "T1, YU2 gp120/CD4 complex binding to mAb 17b (co-receptor binding site) (Human immunodeficiency virus type 1 group M subtype B, UniProt P35961)", "T1 construct": "purchased Immunodiagnostics (Massachusetts, USA)", "parameters": "species or system HIV-1", "settings": "Fig 4F", "protocol": "(§1) For that purpose, CM4 sensorchips were activated with 50 μL of 0.2 M N-ethyl-N’-([…])-carbodiimide (EDC) and 0.05 M N-hydroxy-succimide (NHS) at 5 μL/min. Then soluble CD4 (10 μg/mL in 10 mM acetate buffer, pH 5), streptavidin (200 μg/mL in 10 mM acetate buffer, pH 4.2), mAb 17b (5 μg/mL in 10 mM acetate buffer, pH 5), MN gp120 (50 μg/ml in 5 mM maleate buffer, pH 6) or YU2 gp120 (50μg/mL in 10 mM acetate buffer, pH 4.8) were injected at 5 μL/min over one of the EDC/NHS activated flow cell until levels of 1200 (for sCD4), 700 (for mAb 17b), 3000 (for streptavidin), or 4500 (for gp120s) response units (RU) were achieved. HS (1 mM in phosphate-buffered saline) was biotinylated through its reducing end by reductive amination with 10 mM of biotin-LC-Hydrazine (Pierce) and captured on the streptavidin surface (20 μg/mL in 10 mM Hepes buffer pH 7.4 and 0.3 M NaCl) to a level of 60–80 RU as described. Surfaces were then blocked with 1M ethanolamine (pH 8.5) for 5 minutes. […]\n(§2) The specific binding responses in resonance unit (RU) for MN- (A) and YU2- (B) gp120 were recorded as a function of time (s). […] The specific binding responses in resonance unit (RU) for MN- (C, E) and YU2- (D, F) gp120 were recorded as a function of time (s), and after each injection, the surface was regenerated by a short pulse of 10 mM HCl. […]"}, "[3]": {"molecular_target": "T2, MN gp120/CD4 complex binding to mAb 17b (co-receptor binding site) (Human immunodeficiency virus type 1 group M subtype B, UniProt P05877)", "T2 construct": "purchased Immunodiagnostics (Massachusetts, USA)", "parameters": "species or system HIV-1", "settings": "Fig 4E", "protocol": "as §1, §2"}, "[4]": {"test_system": "HIV-1 LAI (B-X4)", "test": "PBMC antiviral assay (RT activity), HIV-1 LAI", "format": "cell-based", "settings": "Human immunodeficiency virus 1, PBMC, 168 h; PHA-P-activated PBMCs, 125 TCID50, day 7, RT activity", "protocol": "(§3) In order to confirm antiretroviral activity of the compounds, using a cell model closer to the pathophysiology, Peripheral Blood Mononuclear Cells (PBMCs) were separated from a buffy-coat from healthy HIV-, HCV-, HBV-seronegative blood donors by Ficoll-Hypaque density gradient centrifugation. The PBMCs were activated by incubation with 1 μg/ml phytohemagglutinin-P (PHA-P; Difco Laboratories) for three days in RPMI 1640 medium supplemented with 10% heat-inactivated fetal calf serum (FCS, +56 ◦C for 45 min), 2mM l-glutamine and a 1% antibiotic cocktail (penicillin, streptomycin, neomycin). After this mitogen activation, PBMCs were cultivated in the same culture medium supplemented with recombinant human interleukin-2 (rHuIL-2; 20 IU/mL) and treated and/or infected. […] All these viruses were amplified in vitro with PHA-P-activated blood mononuclear cells and 50% tissue culture infectious doses (TCID50) were calculated using Kärber’s formula [37], after limited-dilution titration. […] Viral replication was measured by quantifying reverse transcriptase (RT) activity in the cell culture supernatants using the Lenti RT Activity Kit (Cavidi) and AZT was used as reference anti-HIV-1 molecule. EC50 were then calculated and expressed in μM."}, "[5]": {"molecular_target": "T3, YU2 gp120 (R5-tropic) (Human immunodeficiency virus type 1 group M subtype B, UniProt P35961)", "T3 construct": "YU2 gp120 (50μg/mL in 10 mM acetate buffer, pH 4.8); purchased Immunodiagnostics (Massachusetts, USA)", "format": "binding, HIV-1", "settings": "SPR, 0 to 25 μM injected", "protocol": "(§4) For that purpose, CM4 sensorchips were activated with 50 μL of 0.2 M N-ethyl-N’-([…])-carbodiimide (EDC) and 0.05 M N-hydroxy-succimide (NHS) at 5 μL/min. Then soluble CD4 (10 μg/mL in 10 mM acetate buffer, pH 5), streptavidin (200 μg/mL in 10 mM acetate buffer, pH 4.2), mAb 17b (5 μg/mL in 10 mM acetate buffer, pH 5), MN gp120 (50 μg/ml in 5 mM maleate buffer, pH 6) or YU2 gp120 (50μg/mL in 10 mM acetate buffer, pH 4.8) were injected at 5 μL/min over one of the EDC/NHS activated flow cell until levels of 1200 (for sCD4), 700 (for mAb 17b), 3000 (for streptavidin), or 4500 (for gp120s) response units (RU) were achieved. HS (1 mM in phosphate-buffered saline) was biotinylated through its reducing end by reductive amination with 10 mM of biotin-LC-Hydrazine (Pierce) and captured on the streptavidin surface (20 μg/mL in 10 mM Hepes buffer pH 7.4 and 0.3 M NaCl) to a level of 60–80 RU as described. Surfaces were then blocked with 1M ethanolamine (pH 8.5) for 5 minutes.\n(§5) CD4, mAb 17b and gp120 surfaces were regenerated by 1 min injection of 10 mM HCl and the HS surface was regenerated with a 1 min injection of 0.05% SDS followed by a 3 min injection of 2 M NaCl.\n(§6) In order to evaluate the potential anti-viral properties of cinnamon, we first underwent a series of biochemical binding experiments using surface plasmon resonance. […]"}, "[6]": {"molecular_target": "T4, MN gp120 (X4-tropic) (Human immunodeficiency virus type 1 group M subtype B, UniProt P05877)", "T4 construct": "MN gp120 (50 μg/ml in 5 mM maleate buffer, pH 6); purchased Immunodiagnostics (Massachusetts, USA)", "format": "binding, HIV-1", "settings": "SPR, 0 to 25 μM injected", "protocol": "as §4, §5, §6"}, "[7]": {"test": "Cytotoxicity in PBMCs", "format": "cell-based, human", "settings": "human, PHA-P-activated peripheral blood mononuclear cells (PBMCs)"}, "[8]": {"test_system": "HIV-1 92HT599 (B-X4)", "test": "PBMC antiviral assay (RT activity), HIV-1 92HT599", "format": "cell-based", "settings": "Human immunodeficiency virus 1, PBMC, 168 h; PHA-P-activated PBMCs, 125 TCID50, day 7, RT activity", "protocol": "as §3"}, "[9]": {"test_system": "HIV-1 98IN017 (C-X4)", "test": "PBMC antiviral assay (RT activity), HIV-1 98IN017", "format": "cell-based", "settings": "Human immunodeficiency virus 1, PBMC, 168 h; PHA-P-activated PBMCs, 125 TCID50, day 7, RT activity", "protocol": "as §3"}, "[10]": {"molecular_target": "T5, YU2 gp120-CD4 interaction (Human immunodeficiency virus type 1 group M subtype B, UniProt P35961)", "T5 construct": "HIV-1 gp120 was injected over the immobilized CD4; purchased Immunodiagnostics (Massachusetts, USA)", "format": "binding, HIV-1", "settings": "SPR, immobilized CD4, data not shown", "protocol": "as §1\n(§7) The specific binding responses in resonance unit (RU) for MN- (A) and YU2- (B) gp120 were recorded as a function of time (s). […] The specific binding responses in resonance unit (RU) for MN- (C, E) and YU2- (D, F) gp120 were recorded as a function of time (s), and after each injection, the surface was regenerated by a short pulse of 10 mM HCl."}, "[11]": {"molecular_target": "T6, MN gp120-CD4 interaction (Human immunodeficiency virus type 1 group M subtype B, UniProt P05877)", "T6 construct": "HIV-1 gp120 was injected over the immobilized CD4; purchased Immunodiagnostics (Massachusetts, USA)", "format": "binding, HIV-1", "settings": "SPR, immobilized CD4, data not shown", "protocol": "as §1, §7"}, "[12]": {"test": "Stability studies in formulations", "format": "physicochemical", "settings": "in various formulations"}, "[13]": {"test_system": "HIV-1 reference strains and clinical isolates", "test": "PBMC antiviral assay, whole panel of strains", "format": "cell-based", "method": "The PBMCs were activated by incubation with 1 μg/ml phytohemagglutinin-P (PHA-P; Difco Laboratories) for three days in RPMI 1640 medium supplemented with 10% heat-inactivated fetal calf serum (FCS, +56 ◦C for 45 min), 2mM l-glutamine and a 1% antibiotic cocktail (penicillin, streptomycin, neomycin). After this mitogen activation, PBMCs were cultivated in the same culture medium supplemented with recombinant human interleukin-2 (rHuIL-2; 20 IU/mL) and treated and/or infected. PBMCs were infected either with the reference lymphotropic (-X4) HIV-1 LAI strain [35], the reference macrophage-tropic (-R5) HIV-1 BaL strain [36] or with 4 different clinical isolates (subtype A, B or C). All these viruses were amplified in vitro with PHA-P-activated blood mononuclear cells and 50% tissue culture infectious doses (TCID50) were calculated using Kärber’s formula [37], after limited-dilution titration. […] Cell supernatants were collected at day 7 post-infection and stored at -20°C. Viral replication was measured by quantifying reverse transcriptase (RT) activity in the cell culture supernatants using the Lenti RT Activity Kit (Cavidi) and AZT was used as reference anti-HIV-1 molecule. EC50 were then calculated and expressed in μM. […]"}, "[14]": {"test_system": "HIV-1 Ba-L (B-R5)", "test": "PBMC antiviral assay (RT activity), HIV-1 Ba-L", "format": "cell-based", "settings": "Human immunodeficiency virus 1, BAL, PBMC, 168 h; PHA-P-activated PBMCs, 125 TCID50, day 7, RT activity", "protocol": "as §3"}, "[15]": {"test_system": "PD-1 expression on CD4+ and CD8+ T cells", "test": "Flow cytometry of PD-1 on T cells without HIV-1 (IND02-trimer alone)", "format": "cell-based, human", "settings": "0.4 μg/ml / 0.46 μM, no HIV-1, day 9 post exposure"}}, "data": [{"compound": "Oc1cc(O)c2c(c1)O[C@@]1(c3ccc(O)c(O)c3)Oc3cc(O)c4c(c3[C@@H]2[C@H]1O)O[C@H](c1ccc(O)c(O)c1)[C@H](O)[C@H]4c1c(O)cc(O)c2c1O[C@H](c1ccc(O)c(O)c1)[C@H](O)C2", "note": "[IND02-trimer, cinnamtannin B1]", "values": [{"measurement": "EC50", "setting": "[1]", "result": 2.8, "unit": "µg/mL"}, {"measurement": "EC50", "setting": "[1]; 48 h, mean of triplicate ± SD", "result": "3.2 ± 1.4", "unit": "µM"}, {"measurement": "concentration from which inhibition of YU2 gp120/CD4 binding to mAb 17b was observed", "setting": "[2]", "result": "≥ 50", "unit": "µM"}, {"measurement": "concentration from which inhibition of MN gp120/CD4 binding to mAb 17b was observed", "setting": "[3]", "result": "≥ 50", "unit": "µM"}, {"measurement": "EC50", "setting": "[4]", "result": "4.6 ± 3", "unit": "µM"}, {"measurement": "binding to immobilized YU2 gp120", "setting": "[5]", "result": "gave binding signals"}, {"measurement": "binding to immobilized MN gp120", "setting": "[6]", "result": "gave binding signals"}, {"measurement": "CC50", "setting": "[7]", "result": "23 ± 2", "unit": "µM"}, {"measurement": "EC50", "setting": "[8]", "result": "1.2 ± 1", "unit": "µM"}, {"measurement": "EC50", "setting": "[9]", "result": 0.8, "unit": "µM"}, {"measurement": "inhibition of YU2 envelope binding to CD4", "setting": "[10]", "result": "did not show a significant inhibition"}, {"measurement": "inhibition of MN envelope binding to CD4", "setting": "[11]", "result": "did not show a significant inhibition"}, {"measurement": "time over which the compound is stable", "setting": "[12]", "result": "≥ 6", "unit": "months"}, {"measurement": "EC50", "setting": "[13]; Human immunodeficiency virus 1, PBMC, read-out: EC50 over the panel of strains", "result": "0.8 to 7", "unit": "µM"}, {"measurement": "ED50 against a range of clinical isolates from different clades", "setting": "[13]; PBMCs", "result": "1 to 7", "unit": "µM"}, {"measurement": "EC50", "setting": "[14]", "result": "6.9 ± 2", "unit": "µM"}, {"measurement": "% CD4+/PD-1+", "setting": "[15]", "result": 33.8, "unit": "%"}, {"measurement": "% CD8+/PD-1", "setting": "[15]", "result": 23.7, "unit": "%"}]}]}
